The supplement of paper PMC10307832

Key:
Assay in all cases: relative viability (nuclei count vs DMSO), 5 days (fraction); higher = more cells survive
[1] = compound: CC(=O)Nc1cccc(-n2c(=O)n(C3CC3)c(=O)c3c(Nc4ccc(I)cc4F)n(C)c(=O)c(C)c32)c1 [Trametinib] + N=C(N)NC(=N)NCCc1ccccc1 [Phenformin] (partner 250 µM)
Procedure, shortened: (§1)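 Lung cancer cell lines were seeded in 1536-well plates and dosed by pin tool the next day, with either a single drug or a fixed anchor-drug dose combined with five library-drug doses (not always all listed) spaced in √10 steps. Five days later, one step fixed the cells and stained their nuclei (final 0.05% Triton X-100, 1% formaldehyde, 1 ug/ml Hoechst), and nuclei were counted on 4× images. Relative viability is the nuclei count in treated wells divided by the count in vehicle wells, and each value is the median of duplicate plates.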

[2] = compound: CC(=O)Nc1cccc(-n2c(=O)n(C3CC3)c(=O)c3c(Nc4ccc(I)cc4F)n(C)c(=O)c(C)c32)c1 [Trametinib] + O=C(CCCCCCC(=O)Nc1ccccc1)NO [Vorinostat] (partner 1 µM)
Procedure, shortened: as §1

[3] = compound: CN1C=C(C2=CC=CC=C21)/C=C\3/C4=C(C=CC=N4)NC3=O + CCNC(=O)c1noc(-c2cc(C(C)C)c(O)cc2O)c1-c1ccc(CN2CCOCC2)cc1 [Luminespib] (partner 0.01 µM)
Procedure, shortened: as §1

[4] = compound: CN1C=C(C2=CC=CC=C21)/C=C\3/C4=C(C=CC=N4)NC3=O + N=C(N)NC(=N)NCCc1ccccc1 [Phenformin] (partner 250 µM)
Procedure, shortened: as §1

Cell Line	relative viability ([1]; first compound 0.0025 µM)	relative viability ([1]; first compound 0.007906 µM)	relative viability ([1]; first compound 0.025 µM)	relative viability ([1]; first compound 0.07906 µM)	relative viability ([1]; first compound 0.25 µM)	relative viability ([2]; first compound 0.0025 µM)	relative viability ([2]; first compound 0.007906 µM)	relative viability ([2]; first compound 0.025 µM)	relative viability ([2]; first compound 0.07906 µM)	relative viability ([2]; first compound 0.25 µM)	relative viability ([3]; first compound 0.02 µM)	relative viability ([3]; first compound 0.06325 µM)	relative viability ([3]; first compound 0.2 µM)	relative viability ([3]; first compound 0.6325 µM)	relative viability ([3]; first compound 2 µM)	relative viability ([4]; first compound 0.02 µM)	relative viability ([4]; first compound 0.06325 µM)	relative viability ([4]; first compound 0.2 µM)	relative viability ([4]; first compound 0.6325 µM)	relative viability ([4]; first compound 2 µM)
NCI-H1666	0.526	0.574	0.6	0.57	0.513	0.989	0.946	0.871	0.861	0.713	1	1.04	1.05	0.99	1.04	0.57	0.527	0.481	0.577	0.494
COR-L 105	0.421	0.354	0.293	0.277	0.213	0.715	0.747	0.52	0.484	0.379	0.634	0.616	0.625	0.804	0.85	0.518	0.444	0.496	0.489	0.486
LU99A	0.895	0.812	0.642	0.588	0.455	0.546	0.503	0.291	0.397	0.254	0.265	0.255	0.275	0.355	0.28	0.874	0.846	0.695	0.602	0.8
NCI-H596	0.713	0.704	0.485	0.622	0.411	0.6	0.555	0.436	0.427	0.263	1	1.01	0.858	0.93	0.866	0.858	0.67	0.619	0.698	0.709
201T	0.397	0.412	0.44	0.437	0.423	0.945	0.833	0.736	0.732	0.785	1.01	1.06	1.12	1.03	1.15	0.434	0.451	0.429	0.394	0.422
HCC-15	0.361	0.229	0.18	0.179	0.145	0.814	0.549	0.395	0.276	0.275	0.172	0.344	0.303	0.353	0.36	0.422	0.462	0.486	0.448	0.463
